Experimental data from paper PMC7044277 (Nature Communications, 2020).
“And” between values parts separate entries of the source, which are not always exact repeats. Equal entries are not always repeated.

What was measured:
Format in all cases: cell-based
320 non-olfactory GPCRs [1] = biological target: T1, 320 non-olfactory GPCRs (Homo sapiens, UniProt P51684)
T1 construct: expressed in transfected cells; host or cells: HTLA cells

320 non-olfactory GPCRs [2] = biological target: T2, 320 non-olfactory GPCRs (Homo sapiens, UniProt Q5NUL3)
T2 construct: expressed in transfected cells; host or cells: HTLA cells
T2 sequence (Q5NUL3 whole entry): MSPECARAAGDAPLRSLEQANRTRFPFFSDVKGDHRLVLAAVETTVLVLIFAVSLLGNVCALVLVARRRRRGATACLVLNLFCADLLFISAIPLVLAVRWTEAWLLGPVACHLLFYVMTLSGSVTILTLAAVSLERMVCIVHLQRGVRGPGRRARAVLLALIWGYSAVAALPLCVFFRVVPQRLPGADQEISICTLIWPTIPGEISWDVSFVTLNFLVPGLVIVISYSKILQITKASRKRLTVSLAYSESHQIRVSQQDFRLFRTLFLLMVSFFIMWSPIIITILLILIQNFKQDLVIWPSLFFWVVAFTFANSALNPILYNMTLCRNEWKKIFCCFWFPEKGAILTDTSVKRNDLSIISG

320 non-olfactory GPCRs [3] = biological target: T3, 320 non-olfactory GPCRs (Homo sapiens, UniProt P28336); details: receptor NMBR; replicate values, Fig_4g
T3 construct: expressed in transfected cells; host or cells: HTLA cells
T3 sequence (P28336 whole entry): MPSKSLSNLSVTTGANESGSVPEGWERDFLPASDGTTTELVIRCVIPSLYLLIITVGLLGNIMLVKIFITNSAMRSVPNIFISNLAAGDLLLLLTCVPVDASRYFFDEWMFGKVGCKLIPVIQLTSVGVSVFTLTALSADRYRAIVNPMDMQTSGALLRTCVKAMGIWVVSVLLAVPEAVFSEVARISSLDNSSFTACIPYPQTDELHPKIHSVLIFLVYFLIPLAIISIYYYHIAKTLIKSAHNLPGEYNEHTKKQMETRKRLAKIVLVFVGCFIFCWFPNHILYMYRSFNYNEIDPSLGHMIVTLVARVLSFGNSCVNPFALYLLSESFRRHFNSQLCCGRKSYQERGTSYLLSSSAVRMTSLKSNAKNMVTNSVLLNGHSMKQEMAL

320 non-olfactory GPCRs [4] = biological target: 320 non-olfactory GPCRs (Homo sapiens, UniProt Q15743); details: receptor GPR68 no V2 Tail; replicate values, Fig_4g
320 non-olfactory GPCRs (Homo sapiens, UniProt Q15743), sequence (Q15743 whole entry): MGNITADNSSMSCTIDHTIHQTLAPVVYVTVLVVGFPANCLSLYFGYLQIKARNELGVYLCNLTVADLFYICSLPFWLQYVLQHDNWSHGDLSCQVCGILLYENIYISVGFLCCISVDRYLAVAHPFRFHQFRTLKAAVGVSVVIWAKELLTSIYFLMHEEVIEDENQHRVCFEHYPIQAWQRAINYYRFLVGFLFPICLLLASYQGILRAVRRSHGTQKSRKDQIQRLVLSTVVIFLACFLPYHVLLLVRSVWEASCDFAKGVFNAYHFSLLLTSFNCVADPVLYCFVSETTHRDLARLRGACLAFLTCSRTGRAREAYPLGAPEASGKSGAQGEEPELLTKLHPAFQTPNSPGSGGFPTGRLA
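Throughout, for Fold of Basal: compound tested at 1 µM final concentration.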
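Throughout, for GPCRome agonism screen response: fold over basal response of each receptor without drug.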

T1 sequence (P51684 whole entry): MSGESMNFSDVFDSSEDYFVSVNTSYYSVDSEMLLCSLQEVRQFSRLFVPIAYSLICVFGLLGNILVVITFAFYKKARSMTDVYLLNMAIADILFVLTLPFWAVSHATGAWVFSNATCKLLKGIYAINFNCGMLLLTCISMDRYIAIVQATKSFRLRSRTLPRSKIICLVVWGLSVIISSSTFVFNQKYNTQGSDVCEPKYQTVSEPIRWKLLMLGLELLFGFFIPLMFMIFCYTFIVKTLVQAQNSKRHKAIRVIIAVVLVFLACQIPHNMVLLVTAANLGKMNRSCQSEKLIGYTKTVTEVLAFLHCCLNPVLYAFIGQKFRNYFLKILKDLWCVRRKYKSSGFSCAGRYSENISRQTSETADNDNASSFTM

## CCOc1cccc2cc(C(C)NCC3(O)CCCCC3)oc12 (stereo not shown) [O4LE6]
320 non-olfactory GPCRs [1]
  Fold of Basal: 0.9905 and 0.8775 and 0.7328 and 0.5067
320 non-olfactory GPCRs [2]
  Fold of Basal: 1.4501 and 0.8868 and 0.9227 and 1.231
320 non-olfactory GPCRs [3]
  GPCRome agonism screen response: 0.2359 and 0.9261 and 0.9727 and 0.7093
320 non-olfactory GPCRs [4]
  GPCRome agonism screen response: 1.945 and 0.5249 and 1.001 and 1.345
